Measurements as given in patent publication US20250002450A1, “CATIONIC STEROID COMPOUNDS, METHOD OF OBTAINING THEREOF, FORMULATIONS COMPRISING THEREOF AND THEIR USES” (UNIVERSIDADE DO PORTO, priority 2021, published 2025).

Tests used:
[1] = test system: E. coli ATCC 25922; experiment: Bacterial biofilm formation inhibition (crystal violet); assay type: cell-based, Escherichia coli
Description: (§1) In an embodiment, the antibiofilm activity of compound 1 was performed as follows. Given its bactericidal effect, the impact of compound 1 on the biofilm formation of reference strains was studied.
(§2) The effect of compound 1 on bacterial biofilm formation was evaluated through quantification of total biomass, using the crystal violet method, as previously described ([FIG. 6]). […] A control with an appropriate concentration of DMSO, as well as a negative control (TSB alone) was included. Sterile 96-well flat-bottomed untreated polystyrene microtiter plates were used. After a 24 h incubation at 37 degrees C., the biofilms were heat-fixed for 1 h at 60 degrees C. and stained with 0.5% (v/v) crystal violet (Quimica Clinica Aplicada, Amposta, Spain) for 5 min. The stain was resolubilized with 33% (v/v) acetic acid (Acetic acid 100%, AppliChem, Darmstadt, Germany) and the biofilm biomass was quantified by measuring the absorbance of each sample at 570 nm in a microplate reader (Thermo Scientific Multiskan® EX, Thermo Fisher Scientific, Waltham, MA, USA). The background absorbance (TSB or TSB+1% glucose without inoculum) was subtracted from the absorbance of each sample and the data are presented as a percentage of control. Three independent assays were performed for reference strains, with triplicates for each experimental condition.

[2] = test system: S. aureus 66/1; experiment: Checkerboard synergy with OXA; assay type: cell-based, Staphylococcus aureus
Description: (§3) The combined effect of compound 1 and CTX for E. coli SA/2, VAN for E. faecalis B3/101, COL for E. coli 2252, erythromycin for E. coli ATCC 25922, and OXA for S. aureus 66/1 was evaluated by the checkerboard method. […] The interaction between compound 1 and erythromycin was assessed for E. coli ATCC 25922. Gram-negative bacteria are intrinsically resistant to erythromycin, a macrolide that inhibits protein synthesis, and cannot penetrate the outer membrane of Gram-negative bacteria, which is impermeable to hydrophobic antibiotics. Ascertain ceragenins have been previously described to be able to enhance the efficacy of such antibiotics, this possibility was investigated for compound 1 and a FICI of 0.6 was obtained.

[3] = test system: C. albicans ATCC 10231; experiment: Ergosterol binding assay; assay type: cell-based, Candida albicans; conditions: 400 μg/mL ergosterol
Description: Ceragenins have been described to interact with the lipophilic environment of microbial membranes and ergosterol is the major sterol component of fungal plasma membrane, and the target of several antifungals. As such, in order to evaluate the ability of compound 1 to bind to membrane ergosterol of C. albicans ATCC 10231, MICs were determined in the absence and presence of exogenous ergosterol ([FIG. 10]). If the tested compound has the ability to perturb membrane integrity by binding to ergosterol, is expected that, in the presence of exogenous ergosterol, the compound binds to it, decreasing the amount of compound available to bind to membrane ergosterol, therefore increasing the MIC. Amphotericin B was used as a positive control for this assay and MICs obtained were 8 times higher in the presence of 400 μg/mL of exogenous ergosterol than in its absence (2 to 16 μg/mL, data not shown). […] The ability of compound 1 to bind to membrane ergosterol of C. albicans ATCC 10231, was evaluated by the ergosterol binding assay, as previously described. Briefly, MICs of compound 1 were determined by broth microdilution, as described above, in the absence and presence of ergosterol (Sigma-Aldrich, St. Louis, MO, USA) at a final concentration of 400 μg/mL. Ergosterol was prepared immediately before being added to the plates, by maceration and dissolution in DMSO. The formed emulsion was then homogenized, heated to increase solubility, and diluted in RPMI. Amphotericin B was used as positive control. Plates were incubated at 35° C. for 48 h and MICs were determined as described above. At least two independent assays were performed.

[4] = test system: S. aureus ATCC 29213; experiment: Bacterial biofilm formation inhibition (crystal violet); assay type: cell-based, Staphylococcus aureus; conditions: 2×MIC and MIC, 24 h
Description: as §1, §2

[5] = test system: P. aeruginosa ATCC 27853; experiment: as above; assay type: cell-based, Pseudomonas aeruginosa; conditions: 2×MIC and MIC, 24 h
Description: as §1, §2

[6] = test system: E. coli ATCC 25922; experiment: Checkerboard synergy with erythromycin; assay type: cell-based, Escherichia coli; conditions: E. coli ATCC 25922
Description: as §3

[7] = test system: E. faecalis B3/101 (VRE); experiment: Kirby-Bauer disk diffusion; assay type: cell-based, Enterococcus faecalis; conditions: 15 μg per disk
Description: (§4) An initial screening of the antibacterial activity of the compounds was performed by the Kirby-Bauer disk diffusion method, as recommended by the Clinical and Laboratory Standards Institute (CLSI). Briefly, sterile 6 mm blank paper disks (Oxoid, Basingstoke, England) impregnated with 15 μg of each compound were placed on inoculated MH agar plates. A blank disk with dimethylsulfoxide (DMSO) was used as a negative control. MH inoculated plates were incubated for 18-20 h at 37 degrees C. At the end of incubation, the inhibition halos where measured. The MIC was used to determine the antibacterial activity of each compound, in accordance with the recommendations of the CLSI. Two-fold serial dilutions of the compounds were prepared in Mueller-Hinton Broth 2 (MHB2—Sigma-Aldrich, St. Louis, MO, USA) within the concentration range of 0.062-64 μg/mL. CTX ranging between 0.031-16 μg/mL was used as a control. Sterility and growth controls were included in each assay. Purity checks and colony counts of the inoculum suspensions were also performed in order to ensure that the final inoculum density closely approximates the intended number (5×10^5 CFU/mL). The MIC was determined as the lowest concentration of compound that inhibited growth of the bacteria. The MBC was assessed by spreading 10 μL of culture collected from wells showing no visible growth on MH agar plates. […]

[8] = test system: Enterococcuss faecalis ATCC 29212; experiment: Kirby-Bauer disk diffusion; assay type: cell-based, Enterococcus faecalis; conditions: 15 μg per disk
Description: as §4

[9] = test system: marine biofilm-forming bacterial strains; conditions: cited from earlier work

C[C@H](CCC(=O)NCCN)[C@H]1CC[C@H]2[C@@H]3CC[C@@H]4C[C@H](O)CC[C@]4(C)[C@H]3C[C@H](O)[C@]12C [Compound 1, (R)—N-(2-aminoethyl)-4-((3R,5R,8R,9S,10S,12S,13R,14S,17R)-3,12-dihydroxy-10,13-dimethylhexadecahydro-1H-cyclopenta[a]phenanthren-17-yl) pentanamida]
biofilm formation (in words) ([1]; 2×MIC and MIC, 24 h): significantly inhibited | minimal biofilm inhibitory concentration (MBIC) ([1]; 80% reduction of biofilm formation, E. coli ATCC 25922): < 8 µg/mL | combined effect with OXA (in words) [2]: No synergistic interactions | effect of exogenous ergosterol on MICs (in words) [3]: unaffected | biofilm formation (in words) [4]: significantly inhibited | biofilm formation (in words) [5]: significantly inhibited | combined effect with erythromycin (in words) ([6]; checkerboard): No synergistic interactions | fractional inhibitory concentration index (FICI) ([6]; with erythromycin): 0.6 | Disk diffusion [7]: 11 mm | Disk diffusion [8]: 13 mm | activity against growth of marine biofilm-forming bacterial strains (in words) [9]: active
